Values quoted from earlier work, collected in patent US20140243418A1, “RASAGILINE FOR PARKINSON'S DISEASE MODIFICATION” (Teva Pharmaceutical Industries, Ltd., priority 2008, published 2014).

Experiments:
[1] = test system: Parkinson's disease; details: three doses tested; time to need for levodopa as primary endpoint; cited from earlier work
[2] = molecular target: T1, Type-B Monoamine Oxidase (MAO-B) (Homo sapiens, UniProt P27338); details: cited from earlier work
T1 sequence (P27338 1-520): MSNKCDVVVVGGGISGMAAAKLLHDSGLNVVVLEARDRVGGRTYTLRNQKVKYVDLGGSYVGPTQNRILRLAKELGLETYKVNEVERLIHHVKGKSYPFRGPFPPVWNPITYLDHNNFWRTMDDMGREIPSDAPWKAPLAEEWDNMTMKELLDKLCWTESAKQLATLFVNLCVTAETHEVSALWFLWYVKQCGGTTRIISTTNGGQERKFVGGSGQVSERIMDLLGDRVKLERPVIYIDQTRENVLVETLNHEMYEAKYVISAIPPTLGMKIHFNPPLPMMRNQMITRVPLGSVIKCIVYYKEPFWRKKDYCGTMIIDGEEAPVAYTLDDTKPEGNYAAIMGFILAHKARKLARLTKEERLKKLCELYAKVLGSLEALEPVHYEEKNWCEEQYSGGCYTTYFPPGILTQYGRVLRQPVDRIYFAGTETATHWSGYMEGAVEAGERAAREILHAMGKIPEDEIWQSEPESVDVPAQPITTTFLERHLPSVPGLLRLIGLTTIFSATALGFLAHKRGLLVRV

[3] = test system: Parkinson's disease; details: 12 months of treatment and 2 months of drug wash-out; vs placebo; cited from earlier work

Row | Structure (SMILES) | effect on primary or secondary endpoints [1] | inhibition of Type-B Monoamine Oxidase (MAO-B) [2] | deterioration from baseline in UPDRS motor score [3]
1 | C#CCN(C)CC1=Cc2ccccc2Oc2ccccc21.O=C(O)/C=C\C(=O)O [TCH346] | did not demonstrate a positive effect | did not inhibit | –
2 | C#CCN(C)[C@H](C)Cc1ccccc1 [selegiline] | – | – | less deterioration from baseline than patients treated with placebo
